Test results as given in patent publication US5134150A, “Inhibition of the 5-lipoxygenase pathway” (priority 1989, dated 1992).

Columns and labels:
[1] = test system: Arachidonic Acid-Induced Inflammation of the Mouse Ear; assay: Arachidonic acid-induced mouse ear inflammation; format: in vivo, mouse (male Balb/c); conditions: for Mouse ear edema, result in words: in vivo
Excerpt: (§1) In the following Examples where mice were used, they were male Balb/c mice (20-28 g), and where rats were used, they were male Lewis rats (180-210 g). All mice and rats were obtained from Charles River Breeding Laboratories, Kingston, N.Y. Within a single experiment, mice and rats were sex and age matched.
The compounds of Formula (I) were used either as the free base or in the appropriate salt form. Levamisole was used as the hydrochloride salt. The compounds were homogenized in 0.5% tragacanth. Compounds were administered by gavage at the indicated dose in a final volume of 10 ml/kg. Nordihydroguaiaretic acid (NDGA) was solubilized in dimethylacetamide and diluted with olive oil for subcutaneous administration.
Arachidonic acid in acetone ([…]) was applied to the inner surface of the left ear. The thickness of both ears was then measured with a dial micrometer one hour after treatment, and the data were expressed as the change in thickness (10^-3 cm) between treated and untreated ears.
Test compounds were given orally in 0.5% tragacanth at the times indicated in the text prior to the topical application of arachidonic acid.
Parenteral administration of compound was accomplished by subcutaneous injection of solution as indicated.

[2] = test system: Experimental Allergic Encephalomyelitis Induced in Female Lewis Rats; assay: Experimental allergic encephalomyelitis, hindleg paralysis; format: in vivo, rat (female Lewis); conditions: for Inhibition of EAE, result in words: rat, in vivo
Protocol: EAE is induced in Female (Charles River) Lewis rats by a single intradermal injection of 0.1 ml of an encephalitogenic emulsion consisting of equial parts of a 50% w/v homogenate of guinea pig spinal cord and mid-brain in 0.5% aqueous phenol and Freund's complete adjuvant (4 mg/ml killed, dried M. butyricum) into a hindpaw (left) footpad. […] Any animal which becomes paralyzed during the course of the experiment is considered to have developed EAE whether or not the paralysis is permanent. Test compounds are administered daily beginning on the day of injection, for 19 days, exclusive of days 5, 6 12 and 13. Drug activity is determined by comparing the indicidence of EAE (paralysis) of the treated group with a control (vehicle) group. The level of significant difference between the treated groups and control groups is determined by a Chi-square test using a 2×2 contingency table. Body weight changes from day 0 are also statistically compared to the control group using a Student "t" test.

[3] = test system: Infiltration of Polymorphonuclear Leukocytes into Sites of Carrageenan-Induced Inflammation; assay: Mouse carrageenan peritonitis (PMN infiltration); format: in vivo, mouse (male Balb/c); conditions: for PMN infiltration, result in words: carrageenan peritonitis, mice
[4] = test system: Arachidonic Acid-Induced Rat Paw Edema; assay: Arachidonic acid-induced rat paw swelling; format: in vivo, rat (male Lewis)
Excerpt: as §1
Auranofin, phenidone, indomethacin, naproxen, and ibuprofen were each used as the free base. The compounds of Formula (I) were used either as the free base or in the appropriate salt form. Levamisole was used as the hydrochloride salt. The compounds were homogenized in 0.5% tragacanth. Compounds were administered by gavage at the indicated dose in a final volume of 10 ml/kg. Nordihydroguaiaretic acid (NDGA) was solubilized in dimethylacetamide and diluted with olive oil for subcutaneous administration.
After determining pretreatment paw volumes by plethysmography by the method of Webb and Griswold, J. Pharmacol. Methods, 12, 149-153 (1984), rats were given test compound or vehicle one hour prior to the subplantar injection of 0.1 ml of 1 mg/ml arachidonic acid. Paw volumes were then remeasured and compared to pretreatment values and the increase in paw volume was expressed as mean values ± S.D.

[5] = test system: 5-lipoxygenase and LTA4 synthetase; assay: Di-HETE / LTB4 production by high speed supernatant of RBL-1 cells; format: biochemical
Protocol: For in vitro experiments, compounds were dissolved at appropriate concentrations in ethanol or DMSO (dimethylsulfoxide) (final concentration≤1.0%) and then diluted to final concentrations using the buffers indicated in the text.
The activities of these enzymes in extracts of RBL-1 cells were assayed using the method of Jakschik and Lee, Nature, 287, 51-52 (1980). RBL-1 cells were obtained from the American Type Culture Collection (#CRL 1378) and were grown at 37° C. (5% CO2 in air) in spinner culture in MEM supplemented with 10% heat inactivated fetal calf serum. Harvested cells were washed with 50 mM sodium phosphate buffer, pH 7.0, containing 1 mM EDTA and 0.1% gelatin, resuspended in fresh buffer (5×10^7 cells/ml) and disrupted by nitrogen cavitation using the Parr bomb at 750 psi for 10 min. The broken cell extract was then centrifuged at 10,000× g for 20 minutes (min) and the supernatant centrifuged at 100,000 xIg for 60 min. Aliquots (0.25 mls) of the supernatant were preincubated with or without drugs for 10 min, after which 10 μl CaCl2 (50 mM) was added and the reaction was initiated with 2.5 μl of 2.5 mM arachidonic acid-1-^14 C (final concentration was 25 μM; specific activity 20,000 dpm/nmole). After incubation for 3 min at 37° C., the reaction was terminated by addition of 2 volumes (0.5 ml) ice cold acetone and the sample was allowed to deproteinize on ice for 10 min prior to centrifugation at 1,000× g for 10 min. The deproteinized supernatant was adjusted to pH 3.5 with 2N formic acid and extracted with 2 volumes of ice cold ethyl acetate. The extracted samples were dried under argon, redissolved in ethyl acetate and applied to Whatman LK5D thin layer chromatography (TLC) plates which were developed using the A-9 solvent system [organic phase of ethyl acetate: 2,2,5-trimethylpentane:acetic acid: water (110:50:20:10)] described by Hamberg and Samuelsson, J. Biol. Chem., 241, 257-263 (1966). Arachidonic acid, 5-HETE, LTB4 and PGD2 were quantified with a Berthold LB 2832 autoscanner.
The 5-lipoxygenase and LTA4 synthetase activities were further studied under the following conditions. An additional centrifugation of the RBL-1 supernatant was run at 100,000× g for 60 min, to remove the particulate cyclooxygenase activity. Sample incubation was done under conditions similar to those described above, i.e., 2 mM CaCl2 and […] arachidonic acid-1-^14 C, however, with an incubation time of 5 min at 5° C. Under these conditions, only the 5-lipoxygenase pathway metabolites were detectable. The 5-HETE and di-HETEs were formed at a linear rate, and substantial amounts of the arachidonic acid-1-^14 C substrate were utilized.

[6] = 5 mg/kg, 2 hours post arachidonic acid

Compound	Increase in Ear Thickness at 1 Hour ([1]; 50 mg/kg, p.o.)	Mouse ear edema, result in words [1]	Hindleg paralysis - cumulative incidence, day 14 to 18 ([2]; 60 mg/kg/day, p.o.)	Inhibition of EAE, result in words [2]	PMN infiltration, result in words [3]	Change in Paw Volume ([4]; 100 mg/kg, 2 hours post arachidonic acid) [mL]	Rat paw inflammatory response, result in words ([4]; rat, in vivo)	Di-HETE ([5]; 1 μM) [nM/ml]	Di-HETE ([5]; 3.3 μM) [nM/ml]	Di-HETE ([5]; 10 μM) [nM/ml]	Di-HETE ([5]; 33 μM) [nM/ml]	Di-HETE ([5]; 100 μM) [nM/ml]	IC50 ([5]; soluble extract of RBL-1 cells containing only lipoxygenase activity, read-out: IC50, eicosanoid formation (LTB4 production)) [µM]	% Change (ear thickness) ([1]; 10 mg/kg, p.o.) [%]	Increase in Ear Thickness at 1 Hour ([1]; 10 mg/kg, p.o.)	% Change (PMN) ([3]; 10 mg/kg, p.o., Table 3) [%]	PMN (Mean ± S.D.) ([3]; 10 mg/kg, p.o., Table 3)	% Inhibition (paw volume) [4, 6] [%]	Change in Paw Volume [4, 6] [mL]	Inhibition of eicosanoid formation / LTB4, result in words ([5]; indomethacin: concentrations up to 10^-4 M)
Fc1ccc(-c2nc3n(c2-c2ccncc2)CCS3)cc1 [Compound 1]	10.0 ± 1.5 × 10-3 cm	marked inhibition of the edematous response	0/11	efficacious	reduced dramatically	0.06 ± 0.05	inhibited significantly	1.56 ± 0.06	1.34 ± 0.12	0.88 ± 0.21	0.40 ± 0.08	0.03 ± 0.04	7.5							
COc1ccc2c(c1)c(CC(=O)O)c(C)n2C(=O)c1ccc(Cl)cc1 [Indomethacin]		did not exhibit detectable anti-inflammatory activity		not indomethacin	did not impair inflammatory cell infiltration									-5	24.4 ± 0.8 × 10-3 cm	-12	8.20 ± 2.65 × 10^-5 /ml	0	0.29 ± 0.06	inactive
